# In patent publication US8414660B2, “Haloferax volcanii laccase and variants and fragments thereof” (University of Florida Research Foundation, Inc., priority 2009, dated 2013):
# Values joined by “and” are separate entries in the source; they are usually repeats but may differ in a detail not shown here. Equal entries are not always repeated. Where two headings read alike, the source gives them in different places.
# T1: LccA isolated from Hfx. volcanii SB01 (Haloferax volcanii, UniProt D4GPK6)
# T1 construct: made in house; host or cells: Haloferax volcanii SB01 (H26 carrying plasmid pJAM822), secreted into culture broth
# T1 sequence (D4GPK6 32-579): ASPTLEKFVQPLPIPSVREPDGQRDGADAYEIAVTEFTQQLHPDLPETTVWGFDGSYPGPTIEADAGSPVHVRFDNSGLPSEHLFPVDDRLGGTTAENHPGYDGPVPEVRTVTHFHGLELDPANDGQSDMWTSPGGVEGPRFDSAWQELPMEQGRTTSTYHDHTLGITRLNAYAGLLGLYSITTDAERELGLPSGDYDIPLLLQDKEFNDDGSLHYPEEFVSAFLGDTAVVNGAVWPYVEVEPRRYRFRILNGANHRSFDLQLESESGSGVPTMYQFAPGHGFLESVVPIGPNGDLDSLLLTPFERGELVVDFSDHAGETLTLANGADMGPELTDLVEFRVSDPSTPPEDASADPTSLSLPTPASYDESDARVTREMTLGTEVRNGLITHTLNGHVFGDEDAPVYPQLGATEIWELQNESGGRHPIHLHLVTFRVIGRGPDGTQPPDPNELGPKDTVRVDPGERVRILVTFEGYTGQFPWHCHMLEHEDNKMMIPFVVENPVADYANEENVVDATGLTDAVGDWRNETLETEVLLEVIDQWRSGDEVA
# Key:
# [1] = target: T1, LccA isolated from Hfx. volcanii SB01; assay: biochemical; conditions: for Inhibition of observed LccA activity: 0.1 to 1 mM; for inhibition at 10000 µM: read-out: Inhibition / reduction in LccA activity
# [2] = literature; cited from earlier work
# [3] = comparator laccase-like enzymes, literature, cited from earlier work
# [4] = comparator laccase-like enzymes, literature, cited from earlier work; remark: listed apart in the source
# [5] = Laccase activity assay, oxidation of SGZ (syringaldazine)
# Description: LccA (51 μg·ml^−1) activity was assayed at different temperatures (22° to 70° C.) in T buffer with 185 mM NaCl using SGZ (1 mM) as the substrate. […] LccA activity was assayed with SGZ (●) from pH 6 to 11 and with ABTS (◯) from pH 3 to 8 at 45° C. using following buffers: 100 mM sodium acetate for pH 3 to 6, 25 mM Tris-HCl for pH 7 to 10, and 25 mM glycine-NaOH for pH 11. Activity is expressed as percent relative to oxidation of ABTS at pH 6. […] Purified enzyme (50.6 μg·ml^−1) was pre-incubated in T buffer supplemented with 185 mM NaCl at temperatures from 37° to 70° C. for up to 60 h, as indicated. […] Activity is presented as percent relative to incubation on ice (37° C. (●), 45° C. (▪), 50° C. (▴), 55° C. (♦), 60° C. (◯), 65° C. (□) and 70° C. (Δ)); FIG. 6E-Salt tolerance of LccA protein. Purified enzyme (16.5 μg·ml^−1) was pre-incubated for 30 min in T buffer at pH 8.4 supplemented with different concentrations of NaCl (0 to 1.4 M) as indicated. Samples were diluted to a final concentration 4.12 μg·ml^−1 protein and 185 mM NaCl in T buffer and assayed for SGZ oxidizing activity under standard conditions. Residual activity was calculated as percent relative to incubation at 185 mM NaCl. […] Enzyme (7.5 μg·ml^−1) was incubated in T buffer with 185 mM NaCl in the presence and absence of 25% (v/v) solvent (DMSO, DMF, ethanol and methanol) at room temperature for 90 min (white bar), 3 h (grey bar) and 24 h (black bar). […] Activity is calculated as percent relative to incubation without solvent.
# Enzyme activity was determined by change in absorbance, in triplicate, by UV/Visible-spectroscopy using a BioTek Synergy HT multi-detection microplate reader with a 96-well plate. Oxidation of substrate was monitored by absorbance increase (ABTS at 420 nm with ε=36,000 M^−1 cm^−1; SGZ at 526 nm with ε=65,000 M^−1 cm^−1; DMP at 468 nm with ε=49,000 M^−1 cm^−1; guaiacol at 436 nm with ε=26,600 M^−1 cm^−1; ferrous ammonium sulfate at 315 nm with ε=2,200 M^−1 cm^−1) or decrease (bilirubin at 440 nm with ε=56,300 M^−1 cm^−1). Standard assay conditions were 185 mM NaCl at 45° C. with the following buffers and substrate concentrations: 100 mM sodium acetate buffer at pH 6.0 for ABTS (at 5 mM), DMP (at 2 mM) and guaiacol (at 5 mM); 25 mM Tris-HCl buffer at pH 8.4 for SGZ (at 1 mM); and 200 mM Tris-HCl buffer at pH 8.4 for bilirubin (0.45 mM). Copper sulfate (1 mM) was included for assay of DMP oxidation. Oxidation of ferrous ammonium sulphate (1 mM) was monitored at 315 nm (ε=2,200 M^−1 cm^−1) with and without salt (185 mM NaCl) in 100 mM MES (morpholineethanesulfonic acid) buffer at pH 5 as well as 25 mM Tris-HCl buffer at pH 7.0 and 8.4. One unit of enzyme activity is defined as the amount of enzyme that oxidizes 1 μmol of substrate per min at standard conditions. […] Kinetic parameters (Km, Vmax, and kcat) were determined using the Michaelis-Menten equation. […] All assays and protein purifications were performed at least in triplicate.
# To further evaluate the catalytic properties of LccA, the temperature, pH and salt optima of the purified enzyme were determined using SGZ and/or ABTS as substrates.
# [6] = compound 1 mM, 10 min at 45° C.
# [7] = compound 10 mM, 10 min at 45° C.
# [8] = compound 0.1 mM, 10 min at 45° C.
molecule,measurement,setting,value
O=C(O)CN(CCN(CC(=O)O)CC(=O)O)CC(=O)O [EDTA],Inhibitory activity toward LccA,[1],no inhibitory activity
same,Relative Activity of LccA,[1],100.6 ± 1.8% and 106.3 ± 5.8% and 123.6 ± 3.2% and 123.7 ± 3.0%
"c1ccc(-c2ccccn2)nc1 [2,2-Dipyridyl]",Inhibition / reduction in LccA activity,[1]; 10 mM,25%
same,Relative Activity of LccA,[1]; [6],86.6 ± 3.3%
same,Relative Activity of LccA,[1]; [7],75.2 ± 2.3%
O[C@@H](CS)[C@@H](O)CS (racemic) [DL-Dithiothretol],Inhibition of observed LccA activity,[1],strong inhibitors
same,Relative Activity of LccA,"[1]; compound 0.01 mM, 10 min at 45° C.",90.5 ± 5.5%
same,Relative Activity of LccA,[1]; [8],u.d.
same,Relative Activity of LccA,[1]; [6],u.d.
NC(N)=S [Thiourea],inhibition at 10000 µM,[1]; 10 mM,90%
same,Relative Activity of LccA,[1]; [6],96.5 ± 3.9%
same,Relative Activity of LccA,[1]; [7],9.5 ± 1.3%
"c1cnc2c(c1)ccc1cccnc12 [1,10-Phenanthroline]",inhibition at 10000 µM,[1]; 10 mM,90%
same,Relative Activity of LccA,[1]; [6],85.3 ± 3.4%
same,Relative Activity of LccA,[1]; [7],10.9 ± 3.9%
N[C@@H](CS)C(=O)O [L-Cysteine],Inhibition of observed LccA activity,[1],strong inhibitors
same,Relative Activity of LccA,[1]; [8],83.0 ± 3.7%
same,Relative Activity of LccA,[1]; [6],u.d.^c
McoA [reference compound],Temperature optimum,[2],70 °C
"CotA, Bacillus subtilis: Bacillus subtilis spore coat protein A with laccase activity (Martins et al., 2002) (protein, UniProt P07788 1-513, looked up) Laccase: MTLEKFVDALPIPDTLKPVQQSKEKTYYEVTMEECTHQLHRDLPPTRLWGYNGLFPGPTIEVKRNENVYVKWMNNLPSTHFLPIDHTIHHSDSQHEEPEVKTVVHLHGGVTPDDSDGYPEAWFSKDFEQTGPYFKREVYHYPNQQRGAILWYHDHAMALTRLNVYAGLVGAYIIHDPKEKRLKLPSDEYDVPLLITDRTINEDGSLFYPSAPENPSPSLPNPSIVPAFCGETILVNGKVWPYLEVEPRKYRFRVINASNTRTYNLSLDNGGDFIQIGSDGGLLPRSVKLNSFSLAPAERYDIIIDFTAYEGESIILANSAGCGGDVNPETDANIMQFRVTKPLAQKDESRKPKYLASYPSVQHERIQNIRTLKLAGTQDEYGRPVLLLNNKRWHDPVTETPKVGTTEIWSIINPTRGTHPIHLHLVSFRVLDRRPFDIARYQESGELSYTGPAVPPPPSEKGWKDTIQAHAGEVLRIAATFGPYSGRYVWHCHILEHEDYDMMRPMDITDPHK",Temperature optimum,[2],75 °C
same,"kcat, ABTS",[3],16.8 s⁻¹
same,Km,"[3]; read-out: Km, ABTS",106 µM
same,"kcat, SGZ",[4],3.7 s⁻¹
same,Km,"[4]; read-out: Km, SGZ",26 µM
"LccA-StrepII: LccA with a C-terminal StrepII tag (-WSHPQFEK), purified from Hfx. volcanii SB01 (protein, UniProt D4GPK6 32-579, looked up, C-terminal StrepII tag) Laccase: ASPTLEKFVQPLPIPSVREPDGQRDGADAYEIAVTEFTQQLHPDLPETTVWGFDGSYPGPTIEADAGSPVHVRFDNSGLPSEHLFPVDDRLGGTTAENHPGYDGPVPEVRTVTHFHGLELDPANDGQSDMWTSPGGVEGPRFDSAWQELPMEQGRTTSTYHDHTLGITRLNAYAGLLGLYSITTDAERELGLPSGDYDIPLLLQDKEFNDDGSLHYPEEFVSAFLGDTAVVNGAVWPYVEVEPRRYRFRILNGANHRSFDLQLESESGSGVPTMYQFAPGHGFLESVVPIGPNGDLDSLLLTPFERGELVVDFSDHAGETLTLANGADMGPELTDLVEFRVSDPSTPPEDASADPTSLSLPTPASYDESDARVTREMTLGTEVRNGLITHTLNGHVFGDEDAPVYPQLGATEIWELQNESGGRHPIHLHLVTFRVIGRGPDGTQPPDPNELGPKDTVRVDPGERVRILVTFEGYTGQFPWHCHMLEHEDNKMMIPFVVENPVADYANEENVVDATGLTDAVGDWRNETLETEVLLEVIDQWRSGDEVA",Specific activity lower than US02 purified LccA,[5]; SGZ oxidation,over 20 fold
same,"Specific activity, SGZ oxidation","[5]; purified from culture broth of Hfx. volcanii SB01 (C-terminal StrepII tag), final MonoQ 10/10 pH 8.4",1.3 U·mg^−1
